# Measured values as given in US20240010606A1, “FUMARATE DERIVATIVES AND THEIR MEDICAL USE” (Sitryx Therapeutics Limited, priority 2020, published 2024).
# Structures can show the parent of a compound that is named as a salt.
# Tests used:
# IL-1β = assay: THP-1 AlphaLISA IL-1β cytokine assay; format: cell-based; conditions: for IC50: Homo sapiens, differentiated THP-1 cells
# Description: (§1) Biological Example 1—THP-1 AlphaLISA IL-1β and IL-6 Cytokine Assay Measuring Inhibitory Effects on IL-1, and IL-6 Cytokine Output from THP-1s The cytokine inhibition profiles of compounds of formula (I) were determined in a differentiated THP-1 cell assay. All assays were performed in RPMI-1640 growth medium (Gibco), supplemented with 10% fetal bovine serum (FBS; Gibco), 1% penicillin-streptomycin and 1% sodium pyruvate unless specified otherwise. The IL-1β and IL-6 cytokine inhibition assays were each run in a background of differentiated THP-1 cells as described below. All reagents described were from Sigma-Aldrich unless specified otherwise. Compounds were prepared as 10 mM DMSO stocks. THP-1 cells were expanded as a suspension up to 80% confluence in appropriate growth medium. Cells were harvested, suspended, and treated with an appropriate concentration of phorbol 12-myristate 13-acetate (PMA) over a 72 hr period (37° C./5% CO2). Following 72 hrs of THP-1 cell incubation, cellular medium was removed and replaced with fresh growth media containing 1% of FBS. Working concentrations of compounds were prepared separately in 10% FBS treated growth medium and pre-incubated with the cells for 30 minutes (37° C./5% CO2). Following the 30 minute compound pre-incubation, THP-1s were treated with an appropriate concentration of LPS and the THP-1s were subsequently incubated for a 24 hr period (37° C./5% CO2). An appropriate final concentration of Nigericin was then dispensed into the THP-1 plates and incubated for 1 hour (37° C./5% CO2) before THP-1 supernatants were harvested and collected in separate polypropylene 96-well holding plates. Reagents from each of the IL-1β and IL-6 commercial kits (Perkin Elmer) were prepared and run according to the manufacturer's instructions. Subsequently, fluorescence signal detection in a microplate reader was measured (EnVision® Multilabel Reader, Perkin Elmer). Percentage inhibition was calculated per cytokine by normalizing the sample data to the high and low controls used within each plate (+/−LPS respectively). Percentage inhibition was then plotted against compound concentration and the 50% inhibitory concentration (IC50) was determined from the resultant concentration-response curve.
# IL-6 = assay: THP-1 AlphaLISA IL-6 cytokine assay; format: cell-based; conditions: Homo sapiens
# Description: as §1
# [1] = Hepatocyte stability assay, mouse; format: in vitro ADME; conditions: mouse, cryopreserved hepatocytes, 10 μM compound, Table 5, read-out: T½
# Text: (§2) Biological Example 3—Hepatocyte Stability Assay
# (§3) Defrosted cryo-preserved hepatocytes (viability >70%) are used to determine the metabolic stability of a compound via calculation of intrinsic clearance (CIint; a measure of the removal of a compound from the liver in the absence of blood flow and cell binding). Clearance data are particularly important for […] as they can be used in combination with in vivo data to predict the half-life and oral bioavailability of a drug.
# (§4) The metabolic stability in hepatocytes assay involves a time-dependent reaction using both positive and negative controls. The cells must be pre-incubated at 37° C. then spiked with test compound (and positive control); samples taken at pre-determined time intervals are analysed to monitor the change in concentration of the initial drug compound over 60 minutes. A buffer incubation reaction (with no hepatocytes present) acts as a negative control and two cocktail solutions, containing compounds with known high and low clearance values (verapamil/7-hydroxycoumarin and propranolol/diltiazem), act as positive controls. • 1. The assay is run with a cell concentration of 0.5×10^6 cells/mL in Leibovitz buffer. • 2. All compounds and controls are run in duplicate. • 3. Compound concentration is 10 μM. • 4. All compounds and controls are incubated with both cells and buffer to show turnover is due to hepatic metabolism. • 5. All wells on the incubation plate will have 326.7 μL of either cells or buffer added. • 6. Prior to assay, cell and buffer-only incubation plates are preincubated for 10 mins at 37° C. • 7. The assay is initiated by adding compounds, 3.3 μL of 1 mM in 10% DMSO-90% Buffer; final DMSO concentration is 0.1%. • 8. Samples are taken at regular timepoints (0, 5, 10, 20, 40, 60 min) until 60 mins. • 9. Sample volume is 40 μL and it is added to 160 μL of crash solvent (acetonitrile with internal standard) and stored on ice. • 10. At the end of the assay, the crash plates are centrifuged at 3500 rpm for 20 mins at 4° C. • 11. 80 μL of clear supernatant is removed and mixed with 80 μL of deionised water before being analysed by LC-MS/MS.
# (§5) Raw LC-MS/MS data are exported to, and analysed in, Microsoft Excel for determination of intrinsic clearance. The percentage remaining of a compound is monitored using the peak area of the initial concentration as 100%. Intrinsic clearance and half-life values are calculated using a graph of the natural log of percentage remaining versus the time of reaction in minutes. Half-life (min) and intrinsic clearance (CIint in μL min^−1 10^−6 cells) values are calculated using the gradient of the graph (the elimination rate constant, k) and Equations 1 and 2.
# hepatocytes [2] = assay: Hepatocyte stability assay, mouse; format: in vitro ADME; conditions: 10 μM compound
# Text: as §2, §3, §4, §5
# [3] = Hepatocyte stability assay, human; format: in vitro ADME; conditions: cryopreserved hepatocytes, 10 μM compound, Table 5, read-out: T½
# Text: as §2, §3, §4, §5
# hepatocytes [4] = assay: Hepatocyte stability assay, human; format: in vitro ADME; conditions: 10 μM compound
# Text: as §2, §3, §4, §5
# NRF2 = NRF2 activation assay (DiscoverX PathHunter NRF2 translocation kit, U2OS cells); format: cell-based
# Description: Biological Example 2—NRF2 Activation Assay Measuring Compound Activation Effects on the Anti-Inflammatory Transcription Factor NRF2 in DiscoverX PathHunter NRF2 Translocation Kit Potency and efficacy of compounds of formula (I) against the target of interest to activate NRF2 (nuclear factor erythroid 2-related factor 2) were determined using the PathHunter NRF2 translocation kit (DiscoverX). The NRF2 translocation assay was run using an engineered recombinant cell line, utilising enzyme fragment complementation to determine activation of the Keap1-NRF2 protein complex and subsequent translocation of NRF2 into the nucleus. Enzyme activity was quantified using a chemiluminescent substrate consumed following the formation of a functional enzyme upon PK-tagged NRF2 translocation into the nucleus. Additionally, a defined concentration of dimethyl fumarate was used as the ‘High’ control to normalise test compound activation responses to. U2OS PathHunter eXpress cells were thawed from frozen prior to plating. Following plating, U2OS cells were incubated for 24 hrs (37° C./5% CO2) in commercial kit provided cell medium. Following 24 hrs of U2OS incubation, cells were directly treated with an appropriate final concentration of compound. Following compound treatment, the U2OS plates were incubated for a further 6 hours (37° C./5% CO2) before detection reagent from the PathHunter NRF2 commercial kit was prepared and added to test plates according to the manufacturer's instructions. Subsequently, the luminescence signal detection in a microplate reader was measured (PHERAstar®, BMG Labtech). Percentage activation was calculated by normalising the sample data to the high and low controls used within each plate (+/−DMF). Percentage activation/response was then plotted against compound concentration and the 50% activation concentration (EC50) was determined from the plotted concentration-response curve.
# [5] = Table 2, compounds of formula (II)
# [6] = THP-1, differentiated THP-1 cells, Table 2, compounds of formula (II)
# [7] = +GSH, Table 4, compounds of formula (II)
# [8] = −GSH, Table 4, compounds of formula (II)
SMILES,IC50 (IL-1β; [5]) [µM],IC50 (IL-6; [6]) [µM],other results
"O=C(O)/C=C/C(=O)OC1(c2ncc(C(F)(F)F)cn2)CCC1 [Intermediate 39, (E)-4-oxo-4-(1-(5-(trifluoromethyl)pyrimidin-2-yl)cyclobutoxy)but-2-enoic acid]",30 to 50,30 to 50,–
"COc1cc(OC)cc(C2(OC(=O)/C=C/C(=O)O)CCC2)c1 [Intermediate 40, (E)-4-(1-(3,5-dimethoxyphenyl)cyclobutoxy)-4-oxobut-2-enoic acid]",> 100,30 to 50,–
"O=C(O)COC(=O)/C=C/C(=O)OC1CC2(CCC2)C1 [Example 9, (E)-2-((4-oxo-4-(spiro[3.3]heptan-2-yloxy)but-2-enoyl)oxy)acetic acid]",–,–,"half-life at 10 μM [1]: < 5 min; CIint (hepatocytes [2]; Table 5): + (+ means >277); half-life at 10 μM [3]: 30 to 100 min; CIint (hepatocytes [4]; Table 5): ++++ (++++ means <50); IC50 (IL-1β; LPS then Nigericin, Table 1): 2.5 to 6.1 µM"
"COC(=O)/C=C/C(=O)OC [dimethyl fumarate, Dimethyl fumarate, reference compound]",–,–,"EC50 (NRF2; +GSH, Table 3): > 100 µM; NRF2 activation Emax (NRF2; +GSH, normalised to dimethyl fumarate high control, Table 3): 17.1%; EC50 (NRF2; −GSH, Table 3): 6.1 µM; NRF2 activation Emax (NRF2; −GSH, normalised to dimethyl fumarate high control, Table 3): 100%; IC50 (IL-6; THP-1, differentiated THP-1 cells, LPS then Nigericin, Table 1): 9.3 µM"
"COC(=O)/C=C/C(=O)O [monomethyl fumarate, Monomethyl fumarate, reference compound]",> 100,> 100,EC50 (NRF2; [7]): 48.4 µM; NRF2 activation Emax (NRF2; [7]): 87%; EC50 (NRF2; [8]): 23 µM; NRF2 activation Emax (NRF2; [8]): 114%
"N#Cc1ccc(C2(OC(=O)/C=C/C(=O)O)CCC2)cc1 [Intermediate 27, (E)-4-(1-(4-cyanophenyl)cyclobutoxy)-4-oxobut-2-enoic acid]",50 to 100,6 to 30,–
"O=C(O)/C=C/C(=O)OC(c1ccc(C(F)(F)F)cc1)C(F)(F)F (single isomer, unassigned) [Intermediate 45, (E)-4-oxo-4-(2,2,2-trifluoro-1-(4-(trifluoromethyl)phenyl)ethoxy)but-2-enoic acid]",–,–,CIint (hepatocytes [2]; Table 6): + (+ means >110-277); T½ (hepatocytes [2]; Table 6): 4 min; CIint (hepatocytes [4]; Table 6): ++ (++ means >30-110); T½ (hepatocytes [4]; Table 6): ++ (++ means 5-29)
"O=C(O)/C=C/C(=O)OC1(c2ccc(C(F)(F)F)cn2)CCC1 [Intermediate 9, (E)-4-oxo-4-(1-(5-(trifluoromethyl)pyridin-2-yl)cyclobutoxy)but-2-enoic acid]",6 to 30,6 to 30,–
"O=C(O)/C=C/C(=O)OC1(c2ccc(C(F)F)cc2)CCC1 [Intermediate 31, (E)-4-(1-(4-(difluoromethyl)phenyl)cyclobutoxy)-4-oxobut-2-enoic acid]",6 to 30,6 to 30,–
"O=C(O)/C=C/C(=O)OC1(c2ccc(C(F)(F)F)nc2)CCC1 [Intermediate 15, (E)-4-oxo-4-(1-(6-(trifluoromethyl)pyridin-3-yl)cyclobutoxy)but-2-enoic acid]",30 to 50,> 100,–
"O=C(O)/C=C/C(=O)OC1(c2ccc(Cl)cn2)CCC1 [Intermediate 24, (E)-4-(1-(5-chloropyridin-2-yl)cyclobutoxy)-4-oxobut-2-enoic acid]",30 to 50,6 to 30,–
"N#C[C@H]1C[C@](OC(=O)/C=C/C(=O)O)(c2ccc(C(F)(F)F)cc2)C1 (single isomer, unassigned) [Intermediate 34, (E)-4-((cis)-3-cyano-1-(4-(trifluoromethyl)phenyl)cyclobutoxy)-4-oxobut-2-enoic acid]",6 to 30,30 to 50,–
"O=C(O)/C=C/C(=O)OC1(c2ccc(Cl)cc2)CCC1 [Intermediate 13, (E)-4-(1-(4-chlorophenyl)cyclobutoxy)-4-oxobut-2-enoic acid]",6 to 30,6 to 30,–
"O=C(O)/C=C/C(=O)OC1(c2ccccc2C(F)(F)F)CCC1 [Intermediate 11, (E)-4-oxo-4-(1-(2-(trifluoromethyl)phenyl)cyclobutoxy)but-2-enoic acid]",50 to 100,> 100,–
"CCCCCCCCOC(=O)/C=C/C(=O)O [Intermediate 5, Octyl Fumarate]",–,–,EC50 (NRF2; [7]): < 23 µM; NRF2 activation Emax (NRF2; [7]): ++++ (++++ means >150%); EC50 (NRF2; [8]): < 23 µM; NRF2 activation Emax (NRF2; [8]): ++++ (++++ means >150%)
"O=C(O)/C=C/C(=O)OC1(c2ccc(C(F)(F)F)cc2)CCOCC1 [Intermediate 35, (E)-4-oxo-4-((4-(4-(trifluoromethyl)phenyl)tetrahydro-2H-pyran-4-yl)oxy)but-2-enoic acid]",50 to 100,> 100,–
"CC1(OC(=O)/C=C/C(=O)O)CCC1 [Intermediate 4, (E)-4-(1-methylcyclobutoxy)-4-oxobut-2-enoic acid]",> 100,–,EC50 (NRF2; [7]): 23 to 48.4 µM; NRF2 activation Emax (NRF2; [7]): + (+ means >50-<87%); EC50 (NRF2; [8]): < 23 µM; NRF2 activation Emax (NRF2; [8]): +++ (+++ means >114-150%); activity in the THP-1 cytokine assays (in words) (IL-1β; THP-1 IL-1β and IL-6 assays): not active
"O=C(O)/C=C/C(=O)OC1(c2ccc(Br)cn2)CCC1 [Intermediate 23, (E)-4-(1-(5-bromopyridin-2-yl)cyclobutoxy)-4-oxobut-2-enoic acid]",6 to 30,–,"IC50 (IL-6; differentiated THP-1 cells, Table 2, compounds of formula (II)): 6 to 30 µM"
"O=C(O)/C=C/C(=O)OC1(c2cc(F)c(F)c(F)c2)CCC1 [Intermediate 28, (E)-4-oxo-4-(1-(3,4,5-trifluorophenyl)cyclobutoxy)but-2-enoic acid]",6 to 30,6 to 30,–
